Experimental data from patent US11278528B2, “Activator of peroxisome proliferator-activated receptor” (Nippon Chemiphar Co., Ltd., priority 2017, dated 2022).

Assays:
[1] = target: T1, PPARα (Homo sapiens, UniProt Q07869); experiment: Measurement of agonist activity against PPARα (EnBio RCAS for PPARα kit, PPARA-CBP); type: biochemical; settings: evaluation concentration 10 μM, ratio to maximal response well (GW7647 0.5 μM); for activation at 10 µM: read-out: Binding ratio (%) @ 10 μM
T1 construct: purchased Fujikura Kasei Co., Ltd. PPARA-CBP
T1 sequence (Q07869 1-468): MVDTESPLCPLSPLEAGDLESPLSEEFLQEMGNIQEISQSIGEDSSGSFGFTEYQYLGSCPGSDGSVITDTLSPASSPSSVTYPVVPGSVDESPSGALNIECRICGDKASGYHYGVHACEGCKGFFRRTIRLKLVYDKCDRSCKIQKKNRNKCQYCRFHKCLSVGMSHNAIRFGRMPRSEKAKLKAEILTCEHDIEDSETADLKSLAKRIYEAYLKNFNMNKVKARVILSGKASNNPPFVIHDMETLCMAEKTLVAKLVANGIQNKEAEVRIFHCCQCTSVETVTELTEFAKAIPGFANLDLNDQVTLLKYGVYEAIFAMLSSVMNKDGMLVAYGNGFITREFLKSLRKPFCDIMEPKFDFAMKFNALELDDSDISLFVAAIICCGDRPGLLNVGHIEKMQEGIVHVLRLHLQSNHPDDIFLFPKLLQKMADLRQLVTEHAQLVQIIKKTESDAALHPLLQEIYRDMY
Description: (1) Measurement of Agonist Activity against PPARα
For the measurement of agonist activity against PPARα, the absorbance was measured according to the kit protocol using EnBio RCAS for PPARα kit (PPARA-CBP, Fujikura Kasei Co., Ltd.). A sample was dissolved in dimethylsulfoxide and added to a 96-well plate so as to have an evaluation concentration of 10 μM. GW7647 was added to a maximal response well so as to have a concentration of 0.5 μM. Dimethylsulfoxide was added to background wells. After subtracting the absorbance of the background well from the absorbance of each sample addition well, the ratio of each sample addition well to the maximal response well was calculated to evaluate the agonist activity (Binding ratio, %) against PPARα. Note that the sample addition wells and the background wells were duplicated, and the maximal response well was quadruplicated. As a positive control, 10 μM of a known PPARα agonist; Fenofibric acid (Tokyo Chemical Industry Co., Ltd.) was used.

[2] = test system: NAFLD model rats fed with a methionine/choline-deficient (MCD) diet; experiment: Non-alcoholic fatty liver disease (NAFLD) model rats induced by methionine/choline-deficient diet; type: in vivo, Wistar rats; settings: for Plasma ALT as an indicator of liver damage: versus Vehicle group (FIG. 1A); for Liver TG level as an indicator of fatty liver: versus Vehicle group (FIG. 1B)
Excerpt: (1) Evaluation Using Non-Alcoholic Fatty Liver Disease (NAFLD) Model Rats Induced by Methionine/Choline-Deficient Diet
As a NAFLD model, rats fed with a methionine/choline-deficient (MCD) diet were used to perform experiments. The MCD diet-fed model is widely used as a model for NAFLD/NASH.
Wistar rats (male, 8 weeks old, Charles River Laboratories Japan, Inc.) were fed with an MCD diet (A02082002B, Research Diets, Inc.) for 5 weeks. From the time of feeding the above diet for 1 week, the rats were divided into a Vehicle group, a COMPOUND 2 (50 mg/kg) group, and a Fenofibrate (100 mg/kg) group so that there was no difference in body weight between the groups (n=4 in each of the groups). The Normal group was fed with an MCS diet as a control diet for the MCD diet (A02082003B, Research Diets, Inc.) for the same period. The administration volume was 10 mL/kg, a 1% methylcellulose solution was repeatedly orally administered to the Vehicle group and the Normal group, and a COMPOUND 2 solution and a Fenofibrate solution were repeatedly orally administered to the COMPOUND 2 group and the Fenofibrate group, respectively, once a day for 4 weeks.
The day after the end of the final administration, blood was collected from the posterior vena cava under non-fasting conditions and isoflurane inhalation anesthesia, and plasma was collected. Further, the liver was removed and a part thereof was cryopreserved. Plasma ALT was measured by the JSCC standardized method. Triglyceride (TG) in the liver was extracted from the liver with a chloroform/methanol mixed solution (2:1, v/v), evaporated to dryness, and dissolved in 2-propanol, and then the amount was measured using Triglyceride E Test Wako. The results were each expressed as a mean value±standard deviation. Significant difference was tested between the Normal group and the Vehicle group using the Welch's t test (unpaired) (#: p<0.05 and ###: p<0.001), and significant difference was tested among the Vehicle group and the test substance administration groups using the Dunnett's test (*: p<0.05, **: p<0.01, and ***: p<0.001).

[3] = test system: ZDF rats with low urinary pH; experiment: Low urinary pH improving effect in diabetic model Zucker Diabetic Fatty (ZDF) rats; type: in vivo, ZDF (Lepr^fa/Lepr^fa) rats; settings: 24 h urine, versus Vehicle group (FIG. 2)
Description: (1) Evaluation Using Diabetic Models, Zucker Diabetic Fatty (ZDF) Rats
In this example, the low urinary pH improving effect of COMPOUND 2 was evaluated using diabetic model animals; ZDF rats with low urinary pH. Verinurad; a known URAT1 inhibitor was evaluated as a comparative control compound (the PPARα activating effect of Verinurad was evaluated by the method described in Test Example 1, and as a result, the binding ratio at an evaluation concentration of 10 μM was 3.80%, and no effect was confirmed).
ZDF (Lepr^fa/Lepr^fa) rats (male, 7 weeks old at the start of administration, Charles River Laboratories Japan, Inc.) were divided into a Vehicle group, a COMPOUND 2 (25 mg/kg) group, a COMPOUND 2 (50 mg/kg) group, and a Verinurad (50 mg/kg) group so that there was no difference in body weight between the groups (n=5 in each of the groups). As a Lean group, ZDF (Lean) rats, i.e., control animals of ZDF (Lepr^fa/Lepr^fa) rats, were used (n=5). The administration volume was 10 mL/kg, a 1% methylcellulose solution was repeatedly orally administered to the Vehicle group and the Lean group, and a COMPOUND 2 solutions and a Verinurad solution were repeatedly orally administered to the COMPOUND 2 groups and the Verinurad group, respectively, once a day for 15 days.
During the administration period, the pH of a urine sample obtained by urine collection was measured using a compact pH meter (B-712, Horiba, Ltd.). Urine collection was performed 6 days before the start of administration (pre), on the 1st day, 7th day and 14th day of administration, and urine was collected in a metabolic cage for 24 hours. The results were each expressed as a mean value±standard deviation. At each time point, significant difference was tested between the Lean group and the Vehicle group using the Student's t test (unpaired) (###: p<0.001). After one-way analysis of variance, significant difference was tested among the Vehicle group and the test substance administration groups using the Dunnett's test (*: p<0.05, **: p<0.01, and ***: p<0.001).

[4] = 50 mg/kg oral once a day for 4 weeks
[5] = 50 mg/kg oral once a day for 15 days
[6] = 100 mg/kg oral once a day for 4 weeks

Compound | activation at 10 µM [1] | also measured
CC(C)(Sc1ccc2ncsc2c1-c1ccc(C#N)cc1)C(=O)O [COMPOUND 1, 2-[[7-(4-cyanophenyl)benzo[d]thiazol-6-yl]thio]-2-methylpropanoic acid] | 49.2% | –
CC(C)(Sc1ccc2cnsc2c1-c1ccc(C#N)cc1)C(=O)O [COMPOUND 2, 2-[[7-(4-cyanophenyl)benzo[d]isothiazol-6-yl]thio]-2-methylpropanoic acid] | 69.8% | Plasma ALT as an indicator of liver damage [2, 4]: significantly lower values than the Vehicle group; Liver TG level as an indicator of fatty liver [2, 4]: significantly lower; Urine pH ([3]; 25 mg/kg oral once a day for 15 days): significantly increased from the 7th day of administration; Urine pH [3, 5]: significantly increased from the 1st day of administration
CC(C)(Oc1cc2ncsc2cc1-c1ccc(C#N)cc1)C(=O)O [COMPOUND 3, 2-[[6-(4-cyanophenyl)benzo[d]thiazol-5-yl]oxy]-2-methylpropanoic acid] | 16% | –
CC(C)(Sc1ccc2ccccc2c1-c1ccc(C#N)cc1)C(=O)O [COMPOUND 4, 2-[[1-(4-cyanophenyl)naphthalen-2-yl]thio]-2-methylpropanoic acid] | 52.6% | –
Cc1nsc2c(-c3ccc(C#N)cc3)c(SC(C)(C)C(=O)O)ccc12 [COMPOUND 5, 2-[[7-(4-cyanophenyl)-3-methylbenzo[d]isothiazol-6-yl]thio]-2-methyl propanoic acid] | 41.8% | –
CC(C)(Sc1ccc2nc(C(F)(F)F)sc2c1-c1ccc(C#N)cc1)C(=O)O [COMPOUND 6, 2-[[7-(4-cyanophenyl)-2-(trifluoromethyl)benzo[d]thiazol-6-yl]thio]-2-methylpropanoic acid] | 24.7% | –
Cc1nc2ccc(SC(C)(C)C(=O)O)c(-c3ccc(C#N)cc3)c2s1 [COMPOUND 7, 2-[[7-(4-cyanophenyl)-2-methylbenzo[d]thiazol-6-yl]thio]-2-methylpropanoic acid] | 47% | –
N#Cc1ccc(-c2c(SC3(C(=O)O)CCC3)ccc3cnsc23)cc1 [COMPOUND 8, 1-[[7-(4-cyanophenyl)benzo[d]isothiazol-6-yl]thio]cyclobutan-1-carboxylic acid] | 29.9% | –
CC(C)(Sc1ccc2cnsc2c1-c1ccc(C(F)(F)F)cc1)C(=O)O [COMPOUND 9, 2-methyl-2-[[7-[4-(tri-fluoromethyl)phenyl]benzo[d]iso-thiazol-6-yl]thio]propanoic acid] | 87% | –
CC(C)(Sc1cc(F)c2cnsc2c1-c1ccc(C#N)cc1)C(=O)O [COMPOUND 10, 2-[[7-(4-cyanophenyl)-4-fluorobenzo[d]isothiazol-6-yl]thio]-2-methylpropanoic acid] | 71.3% | –
N#Cc1ccc(-c2c(SC3(C(=O)O)CCCC3)ccc3cnsc23)cc1 [COMPOUND 11, 1-[[7-(4-cyanophenyl)benzo[d]isothiazol-6-yl]thio]cyclopentan-1-carboxylic acid] | 21.7% | –
CC(C)(Sc1ccc2cnsc2c1-c1ccc(Cl)cc1)C(=O)O [COMPOUND 12, 2-[[7-(4-chlorophenyl)benzo[d]isothiazol-6-yl]thio]-2-methylpropanoic acid] | 92.6% | –
Cc1cc(-c2c(SC(C)(C)C(=O)O)ccc3cnsc23)ccc1C#N [COMPOUND 13, 2-[[7-(4-cyano-3-methylphenyl)benzo[d]isothiazol-6-yl]thio]-2-methylpropanoic acid] | 20.8% | –
Cc1nsc2c(-c3ccc(C#N)cc3)c(SC3(C(=O)O)CCC3)ccc12 [COMPOUND 14, 1-[[7-(4-cyanophenyl)-3-methylbenzo[d]isothiazol-6-yl]thio]cyclobutan-1-carboxylic acid] | 26.5% | –
CCC(CC)(Sc1ccc2cnsc2c1-c1ccc(C#N)cc1)C(=O)O [COMPOUND 15, 2-[[7-(4-cyanophenyl)benzo[d]isothiazol-6-yl]thio]-2-ethylbutanoic acid] | 59% | –
CC(C)(C)C(Sc1ccc2cnsc2c1-c1ccc(C#N)cc1)C(=O)O (stereo not shown) [COMPOUND 16, 2-[[7-(4-cyanophenyl)benzo[d]isothiazol-6-yl]thio]-3,3-dimethylbutanoic acid] | 11.8% | –
CC(C)(Oc1ccc(C(=O)c2ccc(Cl)cc2)cc1)C(=O)O [Fenofibric acid, 2-[4-(4-chlorobenzoyl)phenoxy]-2-methylpropionic acid, reference compound] | – | Binding ratio (%) @ 10 μM [1]: 50.46%
CC(C)(Sc1ccncc1-c1ccc(C#N)c2ccccc12)C(=O)O [Verinurad, reference compound] | 3.8% | Urine pH [3, 5]: no low urinary pH improving effect was observed throughout the administration period
fenofibrate [reference compound] | – | Plasma ALT as an indicator of liver damage [2, 6]: significantly lower values than the Vehicle group; Liver TG level as an indicator of fatty liver [2, 6]: significantly lower
